From patent publication US7825256B2, “Inducible nitric oxide synthase dimerization inhibitors” (Kalypsys, Inc., priority 2004, dated 2010)

What was measured:
rat = assay: Capsaicin test (topical capsaicin allodynia); format: in vivo
Description: Subcutaneous injection of dilute capsaicin into the rat hind paw produces transient but pronounced hyperalgesia, allodynia and pain. This effect may be mitigated by pretreatment with a suitable agent, such as a topical anaesthetic or analgesic, and the extent of this mitigation quantified by evaluation of pain-related behaviors in response to noxious or innocuous stimuli as described above; rats pretreated with a known analgesic display fewer pain and allodynia related behaviors than controls. Compounds may be evaluated for their efficacy as potential analgesics in this manner as well.
Male Lewis rats weighing between 180 and 250 grams are used. The right hind paw is dipped into vehicle (100% acetone) or compound in vehicle for 30 seconds and then allowed to air-dry for 30 sec. To prevent the animal from licking the compound off the paw, the paw is wiped twice with a wet paper towel. At 15 min after application of vehicle or compound, 0.1 mg in 10 μL capsaicin is injected into right hind paw. Measurement of allodynia is performed 0.5 to 1 hour after capsaicin injection.
One procedure for quantifying allodynia measures the rat behavioral response to presentation of von Frey filaments of increasing diameter. Each rat is placed in a small, clear cage on an elevated screen. Beginning with 4.31, the von Frey hair is presented perpendicularly to the right mid-plantar hind paw with sufficient force to cause slight buckling, for 6-8 seconds. If presentation lifts the hind paw it is disregarded, as it changes the nature of the stimulus. A positive response is noted if the paw is sharply withdrawn upon onset or offset of stimulus. Ambulation is considered an ambiguous response and the presentation is repeated. Stimuli are presented in a consecutive fashion. A positive response would call for the presentation of the immediately weaker weight filament next; likewise, no response would call for the immediately stronger. Presentations continue until a series of six consecutive responses from the first change is logged. The next rat is then tested. This procedure is standard in the art for the measurement of allodynia, but any other method known in the art which provides adequate sensitivity and reproducibility may be substituted.

hiNOS = target: T1, hiNOS (Homo sapiens, UniProt P35228); assay: DAN assay, hiNOS expressed in transiently transfected HEK293 cells; format: cell-based; details: HEK293 cells transiently transfected with hiNOS
T1 construct: expressed in transfected cells; host or cells: HEK293
Method in brief: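 Human iNOS, nNOS or eNOS transiently expressed in HEK293 cells, with nNOS and eNOS needing added cofactors for activity. NO production is read as nitrite by fluorometry: 2,3-diaminonaphthalene forms fluorescent […], detecting 10 nM to 10 μM nitrite.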

[1] = at 0.5 hr after capsaicin injection
[2] = at 1 hr after capsaicin injection

Row | Structure (SMILES) | Topical Capsaicin Allodynia (rat; [1]) | Topical Capsaicin Allodynia (rat; [2]) | EC50 (hiNOS)
1 | O=C(NCCc1ccc2c(c1)OCO2)[C@H]1C[C@@H](O)CN1c1nc(-n2ccnc2)ns1 [Example 28, (2R,4R)-4-Hydroxy-1-(3-imidazol-1-yl-[1,2,4]thiadiazol-5-yl)-pyrrolidine-2-carboxylic acid (2-benzo[1,3]dioxol-5-yl-ethyl)-amide] | + at 0.5 hr ((+) = >15% inhibition) | + at 1 hr ((+) = >15% inhibition) | < 1 µM
2 | Cc1cc(CNC(=O)NCCc2ccc3c(c2)OCO3)nc(-n2ccnc2)n1 [Example 13, 1-(2-Benzo[1,3]dioxol-5-yl-ethyl)-3-(2-imidazol-1-yl-6-methyl-pyrimidin-4-ylmethyl)-urea] | − at 0.5 hr ((−) = <15% inhibition) | + at 1 hr ((+) = >15% inhibition) | < 1 µM
3 | CN(CCCN(CC(N)=O)c1nc(-n2ccnc2)ns1)Cc1ccc2c(c1)OCO2 [Example 59, 2-[[3-(Benzo[1,3]dioxol-5-ylmethyl-methyl-amino)-propyl]-(3-imidazol-1-yl-[1,2,4]thiadiazol-5-yl)-amino]-acetamide] | + at 0.5 hr ((+) = >15% inhibition) | + at 1 hr ((+) = >15% inhibition) | < 1 µM
4 | Cc1cc(C(C)NCCNCc2ccc3c(c2)OCO3)nc(-n2ccnc2)n1 (stereo not drawn) [Example 38, N-Benzo[1,3]dioxol-5-ylmethyl-N′-[1-(2-imidazol-1-yl-6-methyl-pyrimidin-4-yl)-ethyl]-ethane-1,2-diamine] | + at 0.5 hr ((+) = >15% inhibition) | + at 1 hr ((+) = >15% inhibition) | < 1 µM
5 | O=C(NCCc1ccc2c(c1)OCO2)[C@H]1CCCN1c1nc(-n2ccnc2)ns1 [Example 29, (R)-1-(3-Imidazol-1-yl-[1,2,4]thiadiazol-5-yl)pyrrolidine-2-carboxylic acid (2-benzo[1,3]dioxol-5-yl-ethyl)-amide] | − at 0.5 hr ((−) = <15% inhibition) | + at 1 hr ((+) = >15% inhibition) | < 1 µM
6 | c1cn(-c2nsc(N(CCCNCc3ccc4c(c3)OCO4)Cc3nccs3)n2)cn1 [Example 49, N′-Benzo[1,3]dioxol-5-ylmethyl-N-(3-imidazol-1-yl-[1,2,4]thiadiazol-5-yl)-N-thiazol-2-ylmethyl-propane-1,3-diamine] | + at 0.5 hr ((+) = >15% inhibition) | + at 1 hr ((+) = >15% inhibition) | < 1 µM
